Among the data in patent publication US8148402B2, “Isoindolinone derivatives having inhibitory activity against T-type calcium channel and method for preparation thereof” (Korea Institute of Science and Technology, priority 2008, dated 2012) are inhibition and IC50 values, retold here.

As a reminder, the inhibition is the drop in the measured response relative to a control, in per cent. One may read the IC50 as the concentration at which inhibition is half-maximal.

One experiment has as its target T1, α1G T-type Ca2+ channels (Homo sapiens, UniProt O43497).
T1 construct: expressed in transfected cells
Description: Assay for inhibitory activity against T-type calcium channel using FDSS6000. Type of experiment: cell-based. The following applies: HEK293 cells expressing α1G and Kir2.1, KCl (70 mM) depolarization, fluo3/AM, read-out: FDSS (% Inhibition, at 10 μM). As to the method:
Meanwhile, the novel compounds of Chemical Formula 1 in accordance with the present invention were assayed for antagonistic activity against T-type calcium channels. In this regard, an examination was made of the % inhibition of the compounds against T-type calcium channel using FDSS6000.
In the present invention, in order to search for an efficient inhibitor against T-type calcium channel, a primary assay for T-type calcium channel inhibiting activity was conducted by a high-efficient assay using FDSS6000, wherein mammal HEK293 cell lines (originated from human kidney carcinoma cells), which specifically express alG of T-type calcium channel, were used for the primary assay.
HEK293 cells which stably express both α1G and Kir2.1 subunits were grown in Dulbecoo's modified Eagle's medium supplemented with 10% (v/v) fetal bovine serum, penicillin (100 U/ml), streptomycin (100 µg/ml), geneticin (500 µg/ml), and puromycin (1 μg/ml) at 37° C. in a humid atmosphere of 5% CO2 and 95% air. Cells were seeded into 96-well black wall clear bottom plates at a density of 40,000 cells/well and were used on the next day for high-throughput screening (HTS) FDSS6000 assay. For FDSS6000 assay, cells were incubated for 60 min at room temperature with 5 µM fluo3/AM and 0.001% Pluronic F-127 in a HEPES-buffered solution composed of (in MM): 115 NaCl, 5.4 KCl, 0.8 MgCl2, 1.8 CaCl2, 20 HEPES, 13.8 glucose (pH 7.4). During fluorescence-based FDSS6000 assay, […]1G T-type Ca^2+ channels were activated using a high concentration of KCl (70 mM) in 10 mM CaCl2 contained HEPES-buffered solution, and the increase in [Ca^2+]i by KCl-induced depolarization was detected. All data were collected and analyzed using FDSS6000 and related software (Hamamatsu, Japan).

Another experiment deals with T-type calcium channel (Homo sapiens, UniProt O43497). As to the kind of experiment: Measurement of ion currents through T-type calcium channel using automated patch clamp. Type of experiment: cell-based. The following applies: whole-cell automated patch clamp, HEK-293 cells expressing T-type calcium channel, 10 mM Ba2+. The source says: The selected compounds were used in a second assay for T-type calcium channel inhibiting activity using electrophysiological whole cell patch clamp method, wherein mammal HEK293 cell lines, which are originated from human kidney carcinoma cells and which specifically express alG of T-type calcium channel, were used for the second assay. As a reference drug, mibefradil which had been developed as T-type calcium channel inhibitor was used.
Stably expressed T-type calcium channels in Human Embryonic Kidney (HEK)-293 cell were provided by Korea Research Institute of Bioscience and Biotechnology (KRIBB) and hERG (human ether-a-go-go-related gene) channels induced by a Tet-expression system expressed in HEK-293 cell were purchased from Iongate (Frankfurt, Germany). In a humidified 5% CO2 incubator at 37° C., T-type calcium channel expressed cells were maintained in Dulbecco's modified Eagle's medium (DMEM) including 10% Fetal Bovine Serum (FBS), and hERG channel expressed cells were maintained in MEM with 10% FBS. For hERG channel expression, the Tet-expression system was activated by adding 1 μg/ml Doxycyclin into the hERG channel cell growth medium 20 h prior to use. Cell lines were subcultured once in three days and used for patch clamp recordings at final confluence of 50-80%. To harvest cells, cell detacher, Trypsin-EDTA (0.25×) was added into the dish and single cells were made using a pipette. Trypsin was removed by centrifugation at 1100 rpm for 3 min. Cells were automatically suspended after adding external cellular solution at room temperature.
The composition of solution for measuring T-type calcium channel and hERG channel activity is following: 140 mM NaCl, 2 mM CaCl2, 4 mM KCl, 1 mM MgCl2, 5 mM D-glucose and 10 mM HEPES (pH 7.4) for external cellular solution, 50 mM KCl, 10 mM NaCl, 60 mM KF, 2 mM MgCl2, 10 mM HEPES and 20 mM EGTA (pH 7.2) for internal cellular solution and 80 mM NaCl, 35 mM CaCl2, 3 mM KCl, 10 mM MgCl2 and 10 mM HEPES (pH 7.4) for seal enhancer. T-type calcium channel activity was recorded after adding 10 mM Ba^2+ into external solution. Each compound dissolved in 100% DMSO with a final concentration of 100 mM was diluted to 10 nM˜100 μM range in external solution with 10 mM Ba^2+ for T-type calcium channel and no Ba^2+ for hERG channel recordings.
In all experiments, auto patch clamp machine NPC©-16 Patchliner (Nanion Technologies, Germany) and whole-cell patch clamp technique were used. Channel current was recorded by EPC10 (HEKA, Germany) amplifier. Cell suspension and patch solutions were automatically divided into the chip (NPC-16 Chip, Nanion Technologies, Germany). Inward current was recorded at −20 mV depolarization potential at intervals of 10 s during 300 ms with −100 mV holding potential for T-type calcium channels, and tail current was recorded at −50 mV at intervals of 10 s during 500 ms after 20 mV depolarization during 200 ms with −80 mV holding potential for hERG channels. Compounds at each concentration were applied to the cell during 20 s. Inhibition curves and IC50 values were automatically calculated from peak currents using data analysis program, IGOR Pro (WaveMetrics, USA).
In general terms: The patch-clamp technique gives a direct electrical read-out from membranes.

T1 sequence (O43497 whole entry): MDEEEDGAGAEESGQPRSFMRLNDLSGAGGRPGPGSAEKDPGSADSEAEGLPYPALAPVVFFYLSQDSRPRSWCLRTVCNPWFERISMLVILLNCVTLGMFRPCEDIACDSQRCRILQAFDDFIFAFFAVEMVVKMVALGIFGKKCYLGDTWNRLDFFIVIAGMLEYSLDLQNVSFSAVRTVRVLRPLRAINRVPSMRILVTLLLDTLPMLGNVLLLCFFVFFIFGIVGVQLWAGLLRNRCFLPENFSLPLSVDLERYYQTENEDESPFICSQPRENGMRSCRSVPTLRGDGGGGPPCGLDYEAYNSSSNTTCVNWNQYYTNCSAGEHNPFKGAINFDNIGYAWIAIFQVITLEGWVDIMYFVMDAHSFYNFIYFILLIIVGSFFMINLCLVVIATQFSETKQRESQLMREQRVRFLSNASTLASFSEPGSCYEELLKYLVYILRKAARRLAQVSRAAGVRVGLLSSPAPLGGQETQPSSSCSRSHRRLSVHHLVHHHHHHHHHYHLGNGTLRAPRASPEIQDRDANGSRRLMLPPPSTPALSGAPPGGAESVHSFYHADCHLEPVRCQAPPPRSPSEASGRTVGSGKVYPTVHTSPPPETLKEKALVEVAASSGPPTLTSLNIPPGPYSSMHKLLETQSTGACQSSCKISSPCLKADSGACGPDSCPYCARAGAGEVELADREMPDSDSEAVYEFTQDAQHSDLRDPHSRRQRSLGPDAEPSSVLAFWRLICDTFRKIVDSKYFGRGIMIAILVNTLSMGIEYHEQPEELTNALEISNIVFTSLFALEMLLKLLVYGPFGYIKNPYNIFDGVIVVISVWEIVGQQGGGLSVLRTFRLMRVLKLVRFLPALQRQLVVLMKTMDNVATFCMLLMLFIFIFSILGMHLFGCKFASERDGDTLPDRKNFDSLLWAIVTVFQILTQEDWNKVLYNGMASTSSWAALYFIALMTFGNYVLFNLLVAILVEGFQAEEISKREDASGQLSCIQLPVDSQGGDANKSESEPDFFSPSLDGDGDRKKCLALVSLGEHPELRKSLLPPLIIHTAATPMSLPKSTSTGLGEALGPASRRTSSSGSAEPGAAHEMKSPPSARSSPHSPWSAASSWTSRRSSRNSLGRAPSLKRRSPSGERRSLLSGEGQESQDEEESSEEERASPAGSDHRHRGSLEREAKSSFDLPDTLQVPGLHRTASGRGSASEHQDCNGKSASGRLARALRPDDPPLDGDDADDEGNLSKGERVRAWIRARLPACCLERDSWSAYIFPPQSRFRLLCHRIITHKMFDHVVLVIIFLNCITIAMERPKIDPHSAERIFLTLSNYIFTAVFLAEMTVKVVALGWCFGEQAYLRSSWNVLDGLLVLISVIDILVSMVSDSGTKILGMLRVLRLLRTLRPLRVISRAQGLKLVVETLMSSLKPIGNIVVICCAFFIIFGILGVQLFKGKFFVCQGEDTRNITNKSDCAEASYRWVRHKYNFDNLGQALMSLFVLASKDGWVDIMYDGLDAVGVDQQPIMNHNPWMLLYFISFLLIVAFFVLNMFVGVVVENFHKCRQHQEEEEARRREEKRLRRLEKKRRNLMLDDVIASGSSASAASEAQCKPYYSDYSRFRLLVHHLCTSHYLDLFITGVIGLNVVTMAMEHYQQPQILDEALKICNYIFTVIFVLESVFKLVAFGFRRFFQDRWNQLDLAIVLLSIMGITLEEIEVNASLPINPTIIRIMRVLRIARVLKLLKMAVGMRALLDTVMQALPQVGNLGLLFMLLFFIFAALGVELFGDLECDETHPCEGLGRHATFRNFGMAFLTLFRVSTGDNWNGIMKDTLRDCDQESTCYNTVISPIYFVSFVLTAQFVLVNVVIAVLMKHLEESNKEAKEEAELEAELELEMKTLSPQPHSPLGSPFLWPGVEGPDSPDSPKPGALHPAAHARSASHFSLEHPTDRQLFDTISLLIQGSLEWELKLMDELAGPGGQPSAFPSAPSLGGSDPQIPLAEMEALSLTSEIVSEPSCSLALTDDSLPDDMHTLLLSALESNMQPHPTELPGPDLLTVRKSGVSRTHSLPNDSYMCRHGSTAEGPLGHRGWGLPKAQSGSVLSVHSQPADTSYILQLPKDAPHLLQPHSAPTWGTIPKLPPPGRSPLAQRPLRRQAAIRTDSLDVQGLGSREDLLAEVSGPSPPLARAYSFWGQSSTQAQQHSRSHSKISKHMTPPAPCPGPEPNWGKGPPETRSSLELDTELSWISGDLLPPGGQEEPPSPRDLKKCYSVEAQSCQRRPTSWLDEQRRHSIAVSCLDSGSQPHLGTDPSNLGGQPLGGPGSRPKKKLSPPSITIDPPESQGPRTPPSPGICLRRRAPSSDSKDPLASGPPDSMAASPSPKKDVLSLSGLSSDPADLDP
Sequence of T-type calcium channel (O43497 whole entry): as above

In the case of `O=C(NCCCN1CCCCC1)c1ccc2c(c1)C(=O)N(Cc1ccccc1)C2` [Compound 1, 2-benzyl-3-oxo-N-(3-(piperidin-1-yl)propyl)isoindoline-5-carboxamide], the inhibition at 10 µM on α1G T-type Ca2+ channels worked out at 22%. In addition, the IC50 on T-type calcium channel came to 9570 nM.

For the compound `O=C(NCCCN1CCCCC1)c1ccc2c(c1)C(=O)N(Cc1ccc(Br)cc1)C2` [Compound 7, 2-(4-bromobenzyl)-3-oxo-N-(3-(piperidin-1-yl)propyl)isoindoline-5-carboxamide], the inhibition at 10 µM at α1G T-type Ca2+ channels worked out at 33.4%. The IC50 on T-type calcium channel came out at 9770 nM.

As for `CCC1CCCCN1CCCNC(=O)c1ccc2c(c1)C(=O)N(Cc1cccc(Br)c1)C2` (centres unmarked) [Compound 24, 2-(3-bromobenzyl)-N-(3-(2-ethylpiperidin-1-yl)propyl)-3-oxoisoindoline-5-carboxamide], the inhibition at 10 µM at α1G T-type Ca2+ channels turned out to be 46%. Also, the IC50 at T-type calcium channel amounted to 4070 nM.

For `CCCC1CCCCN1CCCNC(=O)c1ccc2c(c1)C(=O)N(Cc1cccc(Br)c1)C2` (centres unmarked) [Compound 33, 2-(3-bromobenzyl)-3-oxo-N-(3-(2-propylpiperidin-1-yl)propyl)isoindoline-5-carboxamide], at α1G T-type Ca2+ channels, the inhibition at 10 µM was found to be 60.8%. In addition, the IC50 on T-type calcium channel is 1740 nM.

With `CCCC1CCCCN1CCCNC(=O)c1ccc2c(c1)C(=O)N(Cc1ccc(I)cc1)C2` (centres unmarked) [Compound 36, 2-(4-iodobenzyl)-3-oxo-N-(3-(2-propylpiperidin-1-yl)propyl)isoindoline-5-carboxamide], the inhibition at 10 µM on α1G T-type Ca2+ channels turned out to be 53.8%. On T-type calcium channel, the half-maximal inhibitory concentration (IC50) was 6870 nM.

With `CC(C)C1CCCCN1CCCNC(=O)c1ccc2c(c1)C(=O)N(Cc1cccc(Cl)c1)C2` (centres unmarked) [Compound 40, 2-(3-chlorobenzyl)-N-(3-(2-isopropylpiperidin-1-yl)propyl)-3-oxoisoindoline-5-carboxamide], the inhibition at 10 µM at α1G T-type Ca2+ channels stood at 56.7%. Besides, the IC50 at T-type calcium channel is 1010 nM.

`CC(C)C1CCCCN1CCCNC(=O)c1ccc2c(c1)C(=O)N(Cc1cccc(Br)c1)C2` (centres unmarked) [Compound 42, 2-(3-bromobenzyl)-N-(3-(2-isopropylpiperidin-1-yl)propyl)-3-oxoisoindoline-5-carboxamide]: the inhibition at 10 µM at α1G T-type Ca2+ channels stood at 44.4%. Further, the IC50 on T-type calcium channel was 4150 nM.

In the case of `CC(C)C1CCCCN1CCCNC(=O)c1ccc2c(c1)C(=O)N(Cc1ccc(Br)cc1)C2` (centres unmarked) [Compound 43, 2-(4-bromobenzyl)-N-(3-(2-isopropylpiperidin-1-yl)propyl)-3-oxoisoindoline-5-carboxamide], the inhibition at 10 µM at α1G T-type Ca2+ channels stood at 51.7%. Further, the IC50 on T-type calcium channel worked out at 5100 nM.

Take `CC(C)C1CCCCN1CCCNC(=O)c1ccc2c(c1)C(=O)N(Cc1cccc(I)c1)C2` (centres unmarked) [Compound 44, 2-(3-iodobenzyl)-N-(3-(2-isopropylpiperidin-1-yl)propyl)-3-oxoisoindoline-5-carboxamide]: at α1G T-type Ca2+ channels, the inhibition at 10 µM came to 60.7%. For the same compound, on T-type calcium channel, the IC50 amounted to 4360 nM.

For the compound `CC(C)C1CCCCN1CCCNC(=O)c1ccc2c(c1)C(=O)N(Cc1ccc(I)cc1)C2` (centres unmarked) [Compound 45, 2-(4-iodobenzyl)-N-(3-(2-isopropylpiperidin-1-yl)propyl)-3-oxoisoindoline-5-carboxamide], at α1G T-type Ca2+ channels, the inhibition at 10 µM stood at 58.9%. For the same compound, on T-type calcium channel, the IC50 was found to be 1070 nM.

With `CCCCC1CCCCN1CCCNC(=O)c1ccc2c(c1)C(=O)N(Cc1ccccc1)C2` (centres unmarked) [Compound 46, 2-benzyl-N-(3-(2-butylpiperidin-1-yl)propyl)-3-oxoisoindoline-5-carboxamide], the inhibition at 10 µM at α1G T-type Ca2+ channels was 55.3%. Further, at T-type calcium channel, the IC50 turned out to be 2650 nM.

`CCCCC1CCCCN1CCCNC(=O)c1ccc2c(c1)C(=O)N(Cc1cccc(F)c1)C2` (centres unmarked) [Compound 47, N-(3-(2-butylpiperidin-1-yl)propyl)-2-(3-fluorobenzyl)-3-oxoisoindoline-5-carboxamide]: at α1G T-type Ca2+ channels, the inhibition at 10 µM came to 49%. Besides, the 50% inhibitory concentration (IC50) at T-type calcium channel was determined as 2300 nM.

As to `CCCCC1CCCCN1CCCNC(=O)c1ccc2c(c1)C(=O)N(Cc1ccc(F)cc1)C2` (centres unmarked) [Compound 48, N-(3-(2-butylpiperidin-1-yl)propyl)-2-(4-fluorobenzyl)-3-oxoisoindoline-5-carboxamide], the inhibition at 10 µM on α1G T-type Ca2+ channels stood at 62.1%. The IC50 on T-type calcium channel was 1920 nM.

Turning to `CCCCC1CCCCN1CCCNC(=O)c1ccc2c(c1)C(=O)N(Cc1cccc(Cl)c1)C2` (centres unmarked) [Compound 49, N-(3-(2-butylpiperidin-1-yl)propyl)-2-(3-chlorobenzyl)-3-oxoisoindoline-5-carboxamide], the inhibition at 10 µM at α1G T-type Ca2+ channels was determined as 71.8%. For the same compound, the half-maximal inhibitory concentration (IC50) on T-type calcium channel turned out to be 620 nM.

`O=C(NCCCN1CCCCC1c1ccccc1)c1ccc2c(c1)C(=O)N(Cc1cccc(Br)c1)C2` (centres unmarked) [Compound 60, 2-(3-bromobenzyl)-3-oxo-N-(3-(2-phenylpiperidin-1-yl)propyl)isoindoline-5-carboxamide]: the inhibition at 10 µM at α1G T-type Ca2+ channels was determined as 55.2%. On T-type calcium channel, the IC50 was 1540 nM.

Consider `O=C(NCCCN1CCCCC1c1ccccc1)c1ccc2c(c1)C(=O)N(Cc1ccc(Br)cc1)C2` (centres unmarked) [Compound 61, 2-(4-bromobenzyl)-3-oxo-N-(3-(2-phenylpiperidin-1-yl)propyl)isoindoline-5-carboxamide], for which the inhibition at 10 µM at α1G T-type Ca2+ channels was determined as 45.6%. The IC50 at T-type calcium channel turned out to be 1070 nM.
